We go through 21 molecules from patent US4382030A, “2-Acylaminomethyl-1,4-benzodiazepine derivatives and their salts, pharmaceutical compositions thereof and process for their preparation” (Kali-Chemie Pharma GmbH, priority 1979, dated 1983).

Where only a bound is given, the exact number is not on record here.

Holding throughout (type): in vivo
Data set [1] deals with male mice. Description: Determination of the Minimal Toxic Dose (oral, mice). The note with it: mouse, p.o.; observed 3 h, symptoms and deaths over 24 h. On the procedure:
1. Determination of the Minimal Toxic Dose.
Maximum doses of 300 mg/kg of the test compound are administered orally to three male mice having a weight of 20-25 g and toxicity symptoms are carefully observed for a period of three hours. Furthermore, over a period of 24 hours from the administration all symptoms and deaths are registered. Side-symptoms are also observed and registered. Depending on their water solubility, the test compounds are administered either in form of aqueous solutions or in form of suspensions without the use of solvents. In order to maintain a stable suspension of the test compound, one drop of Tween-80 can be added and the mixture can be mechanically homogenized. In the case of compounds where deaths or toxic symptoms have been observed, additional mice are treated with decreasing doses until a dose is reached at which no toxic symptoms occur. The lowest dose which causes toxic symptoms is considered the minimal toxic dose.

Data set [2] relates to mice (tail flick, heat beam pain reaction). Description: Tail flick Test in Mice. The note with it: sc, 0.5 h; mouse, s.c.; 30 minutes after administration; >75% increase of reaction time in 50% of animals. On the procedure: (§1) This analgesic activity has been evaluated in two pharmacological standard methods, the tail flick test in mice and the arthritis pain test in rats.
3. Tail flick Test in Mice.
This test is carried out according to the method described by D'Amour and Smith (1941), yet fed male and female mice having a body weight of 16 to 25 g are used instead of rats. Thirty minutes prior to treatment with the test compound, each mouse is placed separately in a cylindrical container in such a manner that it cannot turn itself or move forward. Its tail is positioned in a narrow groove projecting out of the container. A certain point of the tail of each animal (about 35 mm beyond the root of the tail) is subjected to the heat beam of a lamp of known strength and temperature which is positioned directly under the tail. The number of seconds which pass before the mouse moves its tail out of the light beam is determined twice, once 30 minutes and once 15 minutes prior to subcutaneous administration of the test compound (10 mg/kg). Mice which show a reaction time differing more than 25% are eliminated from the test. The reaction time is again determined 15 minutes and 30 minutes after the treatment and an increase of the reaction period of more than 75% of the average values prior to treatment in the same animal is considered as showing an analgesic effect. The ED50 (95% reliability) of each test compound 30 minutes after administration is evaluated according to the method of Litchfield and Wilcoxon (1949). The dose which increases the reaction time as compared to the reaction time prior to treatment for more than 75% in 50% of the animals is considered as ED50.

The subject of data set [3] is rats (secondary arthritis pain, mycobacterium smegmae). Put plainly: Arthritis Pain Test in Rats. The note with it: po, rat, p.o., 3 hours after administration, protection in 50% of treated animals. How it is done:
as §1
2. Arthritis Pain Test in Rats.
Male rats having a weight of from 160 to 180 g are anesthetized by small i.p. injection of 20 mg/kg of sodium pentobarbital and 0.1 ml of a suspension of mycobacterium smegmae (SI 043) in liquid paraffin (0.6 mg mycobacterium/0.1 ml of oil) are injected intracutaneously into the left rear paw. Fourteen days later when a marked secondary arthritis has developed in particular in the right rear paw, the effect of the test compound is evaluated. A control-reading is taken 30 minutes prior to administration of the test compound by bending the foot joint of the right rear paw three times and counting the number of squeakings. […] Three hours after oral administration of the test compound the bending of the joint is repeated. Animals which squeak only once or not at all are considered to be protected against pain. Between about 9 and 20 rats are used per dose and the ED50 (95% reliability) is determined according to the method of Litchfield and Wilcoxon (1949). The dose which provides protection in 50% of the treated animals is taken as ED50.

In general, ED50 refers to the dose at which the effect has come halfway, by size or by number of responders. Higher therefore signals a need for a large dose. Regarding `CN1c2ccccc2C(c2ccccc2F)=NCC1CNC(=O)c1ccoc1` (stereo not shown) [Compound 19, 1-methyl-2-[(furane-3-carbonyl)-aminomethyl]-5-(2-fluorophenyl)-1H-2,3-dihydro-1,4-benzodiazepine], the “MDL (minimal toxic dose)” value in data set [1] is on record as over 300 mg/kg. Besides, the 50% effective dose (ED50) in data set [2] amounted to 0.56 mg/kg; in data set [3], 13 mg/kg.
As for `Cc1ccc2c(c1)C(c1ccccc1)=NCC(CNC(=O)c1ccsc1)N2C` (stereo not shown) [Compound 10, 1,7-dimethyl-2-[(thiophene-3-carbonyl)-aminomethyl]-5-phenyl-1H-2,3-dihydro-1,4-benzodiazepine], the “MDL (minimal toxic dose)” value in data set [1] was over 300 mg/kg. The ED50 in data set [2] came out at 3.2 mg/kg; in data set [3], 32 mg/kg.
The matching figures for `COc1cccc(C2=NCC(CNC(=O)c3ccco3)N(C)c3ccccc32)c1` (stereo not shown) [Compound 14, 1-methyl-2-[(furane-2-carbonyl)-aminomethyl]-5-(3-methoxyphenyl)-1H-2,3-dihydro-1,4-benzodiazepine]: over 300 mg/kg, 1.6 mg/kg and 32 mg/kg.
The like results for `COc1ccc2c(c1)C(c1ccccc1)=NCC(CNC(=O)c1ccoc1)N2C` (stereo not shown) [Compound 15, 7-methoxy-1-methyl-2-[(furane-3-carbonyl)-aminomethyl]-5-phenyl-1H-2,3-dihydro-1,4-benzodiazepine] were, in that order, over 300 mg/kg, 8.5 mg/kg and 32 mg/kg.
The matching figures for `CN1c2ccccc2C(c2ccccc2F)=NCC1CNC(=O)c1ccco1` (stereo not shown) [Compound 18, 1-methyl-2-[(furane-2-carbonyl)-aminomethyl]-5-(2-fluorophenyl)-1H-2,3-dihydro-1,4-benzodiazepine]: over 300 mg/kg, 4.1 mg/kg and 18 mg/kg.
With `CN1c2ccccc2C(c2ccccc2)=NCC1CNC(=O)c1cccs1` (stereo not shown) [Compound 1, 1-methyl-2-[(thiophene-2-carbonyl)-aminomethyl]-5-phenyl-1H-2,3-dihydro-1,4-benzodiazepine], the “MDL (minimal toxic dose)” value in data set [1] is over 300 mg/kg. Also, the figures for the ED50 in data set [2] and in data set [3] were 2.8 mg/kg and 13 mg/kg, respectively.
In the case of `CCOc1ccc2c(c1)N(C)C(CNC(=O)c1ccoc1)CN=C2c1ccccc1` (stereo not shown) [Compound 13, 8-ethoxy-1-methyl-2-[(furane-3-carbonyl)-aminomethyl]-5-phenyl-1H-2,3-dihydro-1,4-benzodiazepine], in data set [1], the “MDL (minimal toxic dose)” value is over 200 mg/kg. The figures for the 50% effective dose (ED50) in data set [2] and in data set [3] were 6 mg/kg and 15 mg/kg, respectively.
Take `CN1c2ccccc2C(c2ccccc2F)=NCC1CNC(=O)c1ccsc1` (stereo not shown) [Compound 20, 1-methyl-2-[(thiophene-3-carbonyl)-aminomethyl]-5-(2-fluorophenyl)-1H-2,3-dihydro-1,4-benzodiazepine]: in data set [1], the “MDL (minimal toxic dose)” value is over 300 mg/kg. Besides, the values for the median effective dose (ED50) in data set [2] and in data set [3] were 1.1 mg/kg and 18 mg/kg, respectively.
For the molecule `CCN1c2ccccc2C(c2ccccc2)=NCC1CNC(=O)c1ccoc1` (stereo not shown) [Compound 17, 1-ethyl-2-[(furane-3-carbonyl)-aminomethyl]-5-phenyl-1H-2,3-dihydro-1,4-benzodiazepine], the “MDL (minimal toxic dose)” value in data set [1] was over 200 mg/kg. Also, the median effective dose (ED50) in data set [2] stood at 2.6 mg/kg; in data set [3] it was 22 mg/kg.
The matching figures for `COc1cccc(C2=NCC(CNC(=O)c3ccsc3)N(C)c3ccccc32)c1` (stereo not shown) [Compound 16, 1-methyl-2-[(thiophene-3-carbonyl)-aminomethyl]-5-(3-methoxyphenyl)-1H-2,3-dihydro-1,4-benzodiazepine]: over 300 mg/kg, 0.5 mg/kg and 32 mg/kg.
`COc1ccc2c(c1)N(C)C(CNC(=O)c1ccco1)CN=C2c1ccccc1` (stereo not shown) [Compound 4, 8-methoxy-1-methyl-2-[(furane-2-carbonyl)-aminomethyl]-5-phenyl-1H-2,3-dihydro-1,4-benzodiazepine]: the “MDL (minimal toxic dose)” value in data set [1] is listed as over 200 mg/kg. Also, the values for the ED50 in data set [2] and in data set [3] were 7 mg/kg and 21 mg/kg, respectively.
The matching figures for `CN1c2ccccc2C(c2ccccc2)=NCC1CNC(=O)c1ccsc1` (stereo not shown) [Compound 7, 1-methyl-2-[(thiophene-3-carbonyl)-aminomethyl]-5-phenyl-1H-2,3-dihydro-1,4-benzodiazepine]: over 200 mg/kg, 0.22 mg/kg and 19 mg/kg.
The like results for `Cc1ccc2c(c1)C(c1ccccc1)=NCC(CNC(=O)c1ccoc1)N2C` (stereo not shown) [Compound 11, 1,7-dimethyl-2-[(furane-3-carbonyl)-aminomethyl]-5-phenyl-1H-2,3-dihydro-1,4-benzodiazepine] were, in that order, over 300 mg/kg, 1.2 mg/kg and 30 mg/kg.
The like results for `Cc1ccc(C(=O)NCC2CN=C(c3ccccc3)c3ccccc3N2C)s1` (stereo not shown) [Compound 12, 1-methyl-2-[(5-methylthiophene-2-carbonyl)-aminomethyl]-5-phenyl-1H-2,3-dihydro-1,4-benzodiazepine] were, in that order, over 300 mg/kg, 2.8 mg/kg and 10 mg/kg.
Take `Cc1cc2c(cc1C)N(C)C(CNC(=O)c1ccoc1)CN=C2c1ccccc1` (stereo not shown) [Compound 8, 1,7,8-trimethyl-2-[(furane-3-carbonyl)-aminomethyl]-5-phenyl-1H-2,3-dihydro-1,4-benzodiazepine]: the “MDL (minimal toxic dose)” value in data set [1] is reported as over 200 mg/kg. Also, the values for the ED50 in data set [2] and in data set [3] were 8 mg/kg and 14 mg/kg, respectively.
For the molecule `CN1c2ccccc2C(c2ccccc2F)=NCC1CNC(=O)c1cccs1` (stereo not shown) [Compound 21, 1-methyl-2-[(thiophene-2-carbonyl)-aminomethyl]-5-(2-fluorophenyl)-1H-2,3-dihydro-1,4-benzodiazepine], in data set [1], the “MDL (minimal toxic dose)” value is on record as over 300 mg/kg. Further, the results for the ED50 in data set [2] and in data set [3] were 6.2 mg/kg and 13 mg/kg, respectively.
The matching figures for `COc1ccc2c(c1)N(C)C(CNC(=O)c1ccsc1)CN=C2c1ccccc1` (stereo not shown) [Compound 5, 8-methoxy-1-methyl-2-[(thiophene-3-carbonyl)-aminomethyl]-5-phenyl-1H-2,3-dihydro-1,4-benzodiazepine]: over 200 mg/kg, 2.4 mg/kg and 15 mg/kg.
The like results for `COc1ccc2c(c1)N(C)C(CNC(=O)c1ccoc1)CN=C2c1ccccc1` (stereo not shown) [Compound 6, 8-methoxy-1-methyl-2-[(furane-3-carbonyl)-aminomethyl]-5-phenyl-1H-2,3-dihydro-1,4-benzodiazepine] were, in that order, over 50 mg/kg, 2.8 mg/kg and 9 mg/kg.
The matching figures for `COc1ccc2c(c1)N(C)C(CNC(=O)c1cccs1)CN=C2c1ccccc1` (stereo not shown) [Compound 3, 8-methoxy-1-methyl-2-[(thiophene-2-carbonyl)-aminomethyl]-5-phenyl-1H-2,3-dihydro-1,4-benzodiazepine]: over 200 mg/kg, 5.3 mg/kg and 20 mg/kg.
As to `Cc1ccc(C(=O)NCC2CN=C(c3ccccc3)c3cc4c(cc3N2C)OCO4)s1` (stereo not shown) [Compound 32, 7,8-methylenedioxy-1-methyl-2-[(5-methylthiophene-2-carbonyl)-aminomethyl]-5-phenyl-1H-2,3-dihydro-1,4-benzodiazepine], the ED50 is 5.6 mg/kg in data set [2] and under 18 mg/kg in data set [3].
Turning to `COc1ccc2c(c1)N(C)C(CNC(=O)c1ccc(Br)s1)CN=C2c1ccccc1` (stereo not shown) [Compound 27, 8-methoxy-1-methyl-2-[(5-bromothiophene-2-carbonyl)-aminomethyl]-5-phenyl-1H-2,3-dihydro-1,4-benzodiazepine], the 50% effective dose (ED50) in data set [2] was over 5.6 mg/kg; in data set [3] it was under 32 mg/kg.
